Assay results from patent US20060148730A1, “Method of treating tuberculosis” (priority 2003, published 2006).
pIC50: −log10 of the molar value. In brackets after ≈: the same amount, converted by molar mass. Like-named read-outs stand apart in the source and are kept apart here.

Assays:
M. tuberculosis H37Rv [1] = test: MIC vs. M. tuberculosis H37Rv, microplate Alamar Blue assay (MABA); assay type: cell-based; conditions: for anti-TB activity / MIC in words: result in words; for enhancement in potency of macrolide over counterpart ketolide: MIC ratio ketolide/macrolide
[2] = Overt toxicity in mice, escalating 5-day dosing cycles; assay type: in vivo, Balb/C mice; conditions: once daily, 5-day cycles, sequentially 200, 300, 400, 500 mg/kg
Experimental: Prior to assessing in vivo efficacy, RU66252 and RU69874 were administered to pairs of female Balb/C mice once daily for 5-day cycles, and observed for overt signs of toxicity (e.g., weight loss, ruffled fur, and huddling), after which the mice were rested for 1 or 2 days. Then the dosage was increased for another 5-day cycle. Overall, the same mice received sequentially for 5 days: 200, 300, 400, and 500 mg/kg.

VERO cells = test: Cytotoxicity against VERO cells (MTS, 72 hours); conditions: for in vitro toxicity / cytotoxicity in words: result in words; for pIC50: Chlorocebus sabaeus, Vero
[3] = tested on: J774.1 macrophage cell line; test: Cytotoxicity against J774.1 macrophage cell line; assay type: cell-based, murine; conditions: Mus musculus
M. tuberculosis H37Rv [4] = conditions: cited from earlier work
M. tuberculosis = conditions: literature (Luna-Herrera 1995; Truffot-Pernot 1995); cited from earlier work
M. tuberculosis Erdman = assay type: in vivo, BALB/c mice
[5] = Table 1a, 11,12-carbamate derivatives, anti-TB activity, read-out: MIC
[6] = Mycobacterium tuberculosis, H37RV, Table 1a, 11,12-carbamate derivatives, anti-TB activity, read-out: MIC
[7] = Table 2a, 11,12-diols, anti-TB activity, read-out: MIC
[8] = Table 3, parallel-synthesis carbazate library products, SPE purified, read-out: MIC

CC[C@H]1OC(=O)[C@H](C)[C@@H](O[C@H]2C[C@@](C)(OC)[C@@H](O)[C@H](C)O2)[C@H](C)[C@@H](O[C@@H]2O[C@H](C)C[C@H](N(C)C)[C@H]2O)[C@](C)(OC)C[C@@H](C)C(=O)[C@H](C)[C@H]2N(CCCCn3cnc(-c4cccnc4)c3)C(=O)O[C@]12C [RU69874]
anti-TB activity / MIC in words (M. tuberculosis H37Rv [1]): very low
signs of overt toxicity (weight loss, ruffled fur, huddling) [2]: No signs of overt toxicity
in vitro toxicity / cytotoxicity in words (VERO cells): comparable to clarithromycin

CC[C@H]1OC(=O)[C@@](C)(F)C(=O)[C@H](C)[C@@H](O[C@@H]2O[C@H](C)C[C@H](N(C)C)[C@H]2O)[C@](C)(OCC#Cc2cc(-c3cnc4ccccc4c3)no2)C[C@@H](C)C(=O)[C@H](C)[C@H]2NC(=O)O[C@@]21C [Compound A323348]
MIC (M. tuberculosis H37Rv [1]; [5]): 0.38 µM (≈ 0.323 µg/mL)
MIC (M. tuberculosis H37Rv [1]; read-out: minimum inhibitory concentration (MIC) against M. tuberculosis): 0.38 µM (≈ 0.323 µg/mL)
anti-TB activity / MIC in words (M. tuberculosis H37Rv [1]): very low
in vitro toxicity / cytotoxicity in words (VERO cells): comparable to clarithromycin

CC[C@H]1OC(=O)[C@H](C)C(=O)[C@H](C)[C@@H](O[C@@H]2O[C@H](C)C[C@H](N(C)C)[C@H]2O)[C@](C)(OC)C[C@@H](C)C(=O)[C@H](C)[C@H]2N(CCCCn3cnc(-c4cccnc4)c3)C(=O)O[C@]12C [Telithromycin, reference compound]
MIC (M. tuberculosis H37Rv [1]; [6]): 48 µM (≈ 39 µg/mL)
anti-TB activity / MIC in words (M. tuberculosis H37Rv [1]): less active than clarithromycin
pIC50 ([3]; J774.1, read-out: J774 IC50): 3.99
pIC50 ([3]; J774.1, read-out: toxicity based on J774 cells): 3.99

NNC(=O)c1ccncc1 [Isoniazid]
expected MIC range of positive quality control compound (M. tuberculosis H37Rv [4]): 0.025 to 0.1 µg/mL

CC[C@H]1OC(=O)[C@H](C)[C@@H](O[C@H]2C[C@@](C)(OC)[C@@H](O)[C@H](C)O2)[C@H](C)[C@@H](O[C@@H]2O[C@H](C)C[C@H](N(C)C)[C@H]2O)[C@](C)(OC)C[C@@H](C)C(=O)[C@H](C)[C@@H](O)[C@]1(C)O [Clarithromycin, reference compound]
enhancement in potency of macrolide over counterpart ketolide (M. tuberculosis H37Rv [1]): 16 fold
MIC (M. tuberculosis H37Rv [1]; [7]): 8 µM (≈ 5.98 µg/mL)
activity in mouse models (M. tuberculosis): marginal and nil

CC[C@H]1OC(=O)[C@H](C)C(OC2CC(C)(OC)[C@@H](O)[C@H](C)O2)[C@H](C)[C@@H](O[C@@H]2O[C@H](C)C[C@H](N(C)C)[C@H]2O)[C@](C)(OC)C[C@@H](C)C(=O)[C@H](C)[C@H]2N(NCCCc3ccnc4ccccc34)C(=O)O[C@]12C (stereo partly shown) [RU66252]
enhancement in potency of macrolide over counterpart ketolide (M. tuberculosis H37Rv [1]): 16 fold
MIC (M. tuberculosis H37Rv [1]; [6]): 0.25 µM (≈ 0.239 µg/mL)
MIC (M. tuberculosis H37Rv [1]; Mycobacterium tuberculosis, H37RV, Table 3, parallel-synthesis carbazate library products, SPE purified, read-out: MIC): 9 µM (≈ 8.61 µg/mL)
MIC (M. tuberculosis H37Rv [1]; Mycobacterium tuberculosis, H37RV, follow-up assays, read-out: MIC vs. M. tuberculosis in follow-up assays): ~9 µM (≈ 8.61 µg/mL)
MIC (M. tuberculosis H37Rv [1]; Mycobacterium tuberculosis, H37RV, read-out: minimum inhibitory concentration (MIC) against M. tuberculosis): 0.25 µM (≈ 0.239 µg/mL)
anti-TB activity / MIC in words (M. tuberculosis H37Rv [1]): very low
pIC50 ([3]; J774.1, Table 1a, toxicity, read-out: J774 IC50): 4.79
activity against M. tuberculosis in the acute phase of infection (M. tuberculosis Erdman; […], 100 and 200 mg/kg qd, untreated controls abnormally low): dose-dependent activity
colonies on 10-2 dilution plates of lung homogenates (M. tuberculosis Erdman; treated mouse lung homogenates): no colonies
signs of overt toxicity (weight loss, ruffled fur, huddling) [2]: No signs of overt toxicity
pIC50 (VERO cells; read-out: Vero IC50): 4.60
pIC50 (VERO cells; read-out: toxicity based on VERO cells): 4.60
in vitro toxicity / cytotoxicity in words (VERO cells): comparable to clarithromycin

CC[C@H]1OC(=O)[C@H](C)C(=O)[C@H](C)[C@@H](O[C@@H]2O[C@H](C)C[C@H](N(C)C)[C@H]2O)[C@](C)(OC)C[C@@H](C)C(=NOC2CCCN(C/C=C/c3ccc(-c4ccccc4)cc3)C2)[C@H](C)[C@@H](O)[C@]1(C)O (stereo partly shown) [RU61804]
MIC (M. tuberculosis H37Rv [1]; [7]): 0.5 µM (≈ 0.439 µg/mL)
anti-TB activity / MIC in words (M. tuberculosis H37Rv [1]): most potent of the tested 9-oxime compounds

C#CCON=C1C(C)CC(C)(OC)C(OC2OC(C)CC(N(C)C)C2O)C(C)C(OC2CC(C)(OC)C(O)C(C)O2)C(C)C(=O)OC(CC)C(C)(O)C(O)C1C (stereo not shown) [Compound 1GY17]
MIC (M. tuberculosis H37Rv [1]; Table 5, read-out: MIC): 13 µM (≈ 10.4 µg/mL)

CC[C@H]1OC(=O)[C@H](C)[C@@H](O[C@H]2CC(C)(OC)[C@@H](O)[C@H](C)O2)[C@H](C)[C@@H](O[C@@H]2O[C@H](C)C[C@H](N(C)C)[C@H]2O)[C@](C)(OC)C[C@@H](C)C(=O)[C@H](C)[C@H]2N(NCc3nccn3C)C(=O)O[C@]12C (stereo partly shown) [B3′]
MIC (M. tuberculosis H37Rv [1]; [8]): >18 µM

CC[C@H]1OC(=O)[C@H](C)C(=O)[C@H](C)[C@@H](O[C@@H]2O[C@H](C)C[C@H](N(C)C)[C@H]2O)[C@](C)(OC)C[C@@H](C)C(=O)[C@H](C)[C@H]2N(CCCn3cnc4c3c(=O)n(C)c(=O)n4C)C(=O)O[C@]12C [RU66740]
MIC (M. tuberculosis H37Rv [1]; [5]): >128 µM

CC[C@H]1OC(=O)[C@H](C)[C@@H](O[C@H]2CC(C)(OC)[C@@H](O)[C@H](C)O2)[C@H](C)[C@@H](O[C@@H]2O[C@H](C)C[C@H](N(C)C)[C@H]2O)[C@](C)(OC)C[C@@H](C)C(=O)[C@H](C)[C@H]2N(NCc3c[nH]nc3-c3ccc(F)cc3)C(=O)O[C@]12C (stereo partly shown) [D5′]
MIC (M. tuberculosis H37Rv [1]; [8]): 25 µM (≈ 24.1 µg/mL)

CC[C@H]1OC(=O)[C@H](C)[C@@H](O[C@H]2CC(C)(OC)[C@@H](O)[C@H](C)O2)[C@H](C)[C@@H](O[C@@H]2O[C@H](C)C[C@H](N(C)C)[C@H]2O)[C@](C)(OC)C[C@@H](C)C(=O)[C@H](C)[C@H]2N(NCc3c[nH]c(=O)[nH]c3=O)C(=O)O[C@]12C (stereo partly shown) [E8′]
MIC (M. tuberculosis H37Rv [1]; [8]): >20 µM

cethromycin [ABT773, reference compound]
MIC against M. tuberculosis (M. tuberculosis H37Rv [1]): 3 µM
MIC (M. tuberculosis H37Rv [1]; [5]): 3 µM
